Measurements taken from patent US11103684B2, “Systems, devices, and methods for treating a pulmonary disorder with an agent” (Holaira, Inc., priority 2013, dated 2021).
Converted amounts (≈) assume the structure as drawn. Where a name gives a salt, the structure may show the parent alone. Read-outs that look alike come from different tables or passages of the source.

Experiments:
[1] = Solubility levels of various agents in water; details: for Extent (of solubility): US Pharmacopea scale, part of solvent per part of solute; for Part H20/part solute / Solubility in Water: water; for Solubility in Water: from mg/L and MW
Text: According to US Pharmacopea standards, the scale of solubility (part of solvent per part of solute) is as follows:

[2] = physchem; details: water
[3] = cited from earlier work

Compound | Extent (of solubility) [1] | Part H20/part solute [1] | Solubility in Water [1] | solubility ([2]; Solubility in Water (mol/L)) | other results
CCCCN1CCCCC1C(=O)Nc1c(C)cccc1C (centres unmarked) [Bupivicaine] | very slightly soluble (1000 to 10000) | 6720 | 8.333 mM (≈ 2400 µg/mL) |  | 
[N]=O [Nitric Oxide] |  |  |  |  | solubility [2]: 2.85 mM (≈ 85.4 µg/mL)
CCN(CC)CCNC(=O)c1ccc(N)cc1 [Procainamide] |  |  |  | 18.6 mM (≈ 4390 µg/mL) | 
CCCN1CCCC[C@H]1C(=O)Nc1c(C)cccc1C [Ropivacaine HCL] |  |  |  |  | Extent (of solubility) ([1]; HCL): slightly soluble (100 to 1000); Part H20/part solute ([1]; HCL): 342.5; Solubility in Water ([1]; HCL): 163.5 mM; Solubility in Water ([3]; HCL): 53.8 mg/mL
CCCN1CCCC[C@H]1C(=O)Nc1c(C)cccc1C [Ropivacaine] | insoluble (>10000) | 266388.8889 | 0.2102 mM (≈ 57.7 µg/mL) |  | Solubility in Water [3]: 0.0576 mg/mL (≈ 210 µM)
Cc1cccc(C)c1NC(=O)C(C)N (centres unmarked) [Tocainide] |  |  |  | 55.7 mM (≈ 10700 µg/mL) | 
